BindingDB's records for patent US12534477 (Hangzhou Zhongmeihuadong Pharmaceutical, 2026)

The compounds below were run against T1, Ketohexokinase (Human, UniProt P50053) (assay: Ketohexokinase Assay (KHK Assay)).
T1 sequence (P50053 whole entry): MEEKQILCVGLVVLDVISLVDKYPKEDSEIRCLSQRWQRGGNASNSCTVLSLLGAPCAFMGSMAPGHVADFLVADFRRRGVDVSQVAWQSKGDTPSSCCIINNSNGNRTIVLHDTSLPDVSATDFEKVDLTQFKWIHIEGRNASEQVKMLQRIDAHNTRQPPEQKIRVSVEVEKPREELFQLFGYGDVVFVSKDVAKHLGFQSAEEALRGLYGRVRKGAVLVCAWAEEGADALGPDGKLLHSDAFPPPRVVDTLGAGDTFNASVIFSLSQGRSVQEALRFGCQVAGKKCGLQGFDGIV
Protocol: a) Kinase Reaction1. preparation of Dilution Buffer containing 50 mM hydroxyethylpiperazine […] (Hepes), 140 mM KCl, 3.5 mM MgCl2, and 0.01% bovine serum albumin (BSA), pH 7.4.2. A working solution of ketohexokinase at 2.5 times concentration was prepared with Dilution Buffer, with 50 nM ketohexokinase and 12.5 mM fructose.3. A working solution of adenosine triphosphate (ATP) at 2.5 times concentration was prepared with Dilution Buffer, with a concentration of 250 μM.4. Each compound was diluted starting at a concentration of 500 μM, 3-fold diluted for 9 concentration points. The final concentration of the compound in the reaction system started from 10 μM and the final concentration of dimethyl sulfoxide (DMSO) was 2%.5. A 96-well plate was prepared as a reaction plate, and was incubated at room temperature for 5 min after adding 6 μL ketohexokinase working solution at 2.5 times concentration to each well and further adding 3 μL compound working solution to each well.6. The first well of each row was a positive control for a compound, i.e. the same volume of the buffer was added to replace the compound […]. The last well was a negative control for the compound, i.e. the same volume of Dilution Buffer was added instead of the compound.7. 6 μL ATP working solution was added to each well in a 96-well reaction plate to initiate the kinase reaction. The kinase reaction was incubated in a constant temperature heater at 28° C. for 1 h.b) ADP-Glo assay1. A384 plate was prepared as a detection plate, and firstly 5 μL ADP-Glo reagent was added.2. 5 μL kinase reaction mixture from the reaction plate was added to each well and incubated in a constant temperature heater at 28° C. for 30 min.3. 10 μL kinase detection reagent was added to each well and incubated in a constant temperature heater at 28° C. for 30 min.4. The detection plate was placed in an EnVision multilabel reader to read the chemiluminescent signal.

Structure (SMILES) | IC50 [µM]
C[C@H]1CCN1c1nc(Nc2ccc(C(=O)O)c(C(F)(F)F)c2)c2ccsc2n1 [US12534477, Compound WX013] | 0.017
C[C@H]1CCN1c1nc(N2CC3(CC3C(=O)O)C2)c2c(n1)C(F)(F)CC2 (some centres undefined) [US12534477, Compound WX035] | 0.036
C[C@H]1CCN1c1nc(N2CC3(C[C@@H]3C(=O)O)C2)c2c(n1)C(F)(F)CC2 [US12534477, Compound WX042] | 0.021
C[C@H]1CCN1c1nc(N2CC3(C[C@H]3C(=O)O)C2)c2c(n1)C(F)(F)CC2 [US12534477, Compound WX043] | 0.028
